Data on 1 compound can be found in patent US20070082017A1, “Lipid compositions and methods of use” (priority 2004, published 2007).

For the assay, the system named is patients with dry eye symptoms. Briefly: Clinical use of lipid composition applied to the eyelid margin for dry eye. Type of assay: in vivo, human. As to conditions: Patient No. 4; 1 percent non-preserved, two weeks.

Description: These patients were afflicted with meibomian gland dysfunction, various forms of dry eye syndrome, abnormal lids due to chemical burns, Stevens-Johnson syndrome, ocular pemphigoid, etc.

Turning to `C[C@H]1C[C@@H]2[C@H]([C@@H](O)C[C@@]3(C)[C@H]2CC[C@]3(O)C(=O)CO)[C@@]2(C)C=CC(=O)C=C12` [methyl prednisolone], the improvement of symptoms is reported as 50%.
